Reference: patent publication US20040242524A1, “Chemotherapeutic composition and method” (priority 1998, published 2004)
≈ marks a conversion by molar mass, not a printed value. Where “and” joins values, the source holds several entries; their conditions need not be identical. Identical values can stand only once. Like-named read-outs stand apart in the source and are kept apart here.

Key:
[1] = tested on: B-16 melanoma cells; assay: Inhibition of B-16 melanoma cell proliferation by chemotherapeutic agents ± MCC (MTT reduction); format: cell-based, murine; conditions: for IC50: B16; for inhibited proliferation: 72 h, MTT
Experimental: B-16 melanoma cells, at 3×10^5 cells/ml, were incubated for 72 h with the chemotherapeutic agents mitomycin-C, 5-fluorouracil and cisplatin in the absence and in the presence of MCC. Cell proliferation was determined using dimethylthiazol-diphenyltetrazolium bromide (MTT) reduction (Mosman et al. Journal of Immunological Methods 65:55-63, 1983). After 72 h, 20 μl of MTT in culture medium was added to each well and incubated for 3 h. Medium was then aspirated from each well, 100 μl of acidified isopropyl alcohol was added to each sample and reduced MTT was solubilized by mixing. The absorbency of the reaction product was determined using an ELISA microplate reader at a wavelength of 570 nm.
B-16 melanoma cells were incubated with 0.01 to 100 μg/ml of mitomycin-C, with 1 to 100 μg/ml of MCC and with 0.01 to 10 μg/ml of mitomycin-C+1 μg/ml MCC. Mitomycin-C is an anti-tumor antibiotic produced by Streptomyces caespitosus, which cross-links DNA, depolymerizes DNA and forms free radicals.
B-16 melanoma cells were incubated with 0.01 to 100 μg/ml of 5-fluorouracil, with 1 to 100 μg/ml of MCC and with 0.01 to 10 μg/ml of 5-fluorouracil+1 μg/ml MCC. 5-fluorouracil is an antimetabolite, which interferes with DNA and RNA synthesis.
B-16 melanoma cells were incubated with 0.01 to 100 μg/ml of cisplatin, with 1 to 100 μg/ml of MCC and with 0.01 to 10 μg/ml of cisplatin+1 μg/ml MCC. Cisplatin is an alkylating agent that cross-links DNA and inhibits DNA precursors.

[2] = tested on: Jurkat T cell leukemia cells; assay: Cell cycle analysis, synchronously dividing (MTX) Jurkat cells; format: cell-based, human; conditions: MTX alone (0.08 μM)
Experimental: (§1) Cell cycle stage was determined using a CYCLETEST™ PLUS DNA commercial kit (Becton Dickinson, San Jose, Calif., USA). Briefly, nuclei from treated cells were obtained by dissolving the cell membrane in a nonionic detergent, eliminating the cell cytoskeleton and nuclear proteins with trypsin, digesting the cellular RNA with RNase, and stabilizing the nuclear chromatin with spermine. Propidium iodide was added to the cell nuclei and their fluorescence was analyzed in a flow cytometer equipped with electronic doublet discrimination capability (FACSCalibur, Becton Dickinson). Accumulation of cells in GO/G1, S (SE, SM, SL) or G2/M phases of the cell cycle was analyzed using MODFIT LT software (Verity Software House Inc., Topsham, Mass., USA). Results are expressed as percentage of cells in each phase of the cell cycle.
(§2) To synchronize cell populations, exponentially growing cells were incubated in tissue culture medium containing 0.04 to 0.16 μM methotrexate (MTX) for 20 hours. The MTX medium was removed, cells were washed extensively with phosphate buffered saline (PBS), fresh medium was added, incubation was continued for 8 hours and cell cycle analysis was performed as in Example 4.
(§3) Exponentially growing Jurkat, HL-60, HL-60MX1 and EL-4 cells, at 1×10^6 cells/ml, and B-16 cells, at 3×10^5 cells/ml, were prepared for analysis as in Example 5 with 0, 10 and 100 μg/ml of MCC in the MTX medium.
Exponentially growing Jurkat leukemia cells, at 1×10^6 cells/ml, were prepared for analysis as in Example 5 with 0 and 10 μg/ml of MCC and 10 μg/ml DNase I-treated MCC in the MTX medium.

[3] = tested on: EL-4 lymphoma cells; assay: Cell cycle analysis, synchronously dividing (MTX) EL-4 cells; format: cell-based, murine; conditions: MTX alone (0.16 μM)
Experimental: as §1, §2, §3

[4] = tested on: mitoxantrone resistant promyelocytic HL-60MX1 leukemia cells; assay: Cell cycle analysis, synchronously dividing (MTX) HL-60MX1 cells; format: cell-based, human; conditions: MTX alone (0.04 μM)
Experimental: as §1, §2, §3

[5] = tested on: promyelocytic HL60 leukemia cells (HL-60); assay: Cell cycle analysis, synchronously dividing (MTX) HL-60 cells; format: cell-based, human; conditions: MTX alone (0.04 μM)
Experimental: as §1, §2, §3

[6] = tested on: B-16 melanoma cells; assay: Cell cycle analysis, synchronously dividing (MTX) B-16 cells; format: cell-based, murine; conditions: MTX alone
Experimental: as §1, §2, §3

[7] = tested on: B-16 melanoma tumors; assay: Effects of M-DNA and MCC in combination with mitomycin-C on B-16 melanoma tumors in mice; format: in vivo; conditions: nude BALB/c mice, subcutaneous B-16, after 4 weeks of treatment; Group 1 saline, Group 4 mitomycin-C
Experimental: B-16 melanoma cells are implanted subcutaneously into 30 male nude BALB/c mice and allowed to grow for 10 days. The mice are divided into 6 groups and tumor mass is measured in each mouse. On day 0, Group 1 mice receive saline, Group 2 mice receive M-DNA, Group 3 mice receive MCC, Group 4 mice receive mitomycin-C, Group 5 mice receive M-DNA and mitomycin-C and Group 6 mice receive MCC and mitomycin-C. After 4 weeks of treatment, the mice are sacrificed and the tumor mass and number of metastases are determined. Group 1 mice have the most tumor mass.

[8] = 0.1 μg/ml, in the presence of 1 μg/ml MCC
[9] = 1 μg/ml, in the presence of 1 μg/ml MCC

For `O=c1[nH]cc(F)c(=O)[nH]1` [5-fluorouracil], the inhibition at 0.01 µg/mL ([1]; Mus musculus, B16, 72 h, read-out: inhibited proliferation, 0.01 μg/ml, agent alone, 72 h, MTT) was ~8%, the inhibition at 0.01 µg/mL ([1]; Mus musculus, B16, 72 h, read-out: inhibited proliferation, 0.01 μg/ml, in the presence of 1 μg/ml MCC, 72 h, MTT) was ~75% and the inhibition at 0.1 µg/mL ([1]; Mus musculus, B16, 72 h, read-out: inhibited proliferation, 0.1 μg/ml, agent alone, 72 h, MTT) was ~50%. The inhibition at 0.1 µg/mL ([1]; Mus musculus, B16, 72 h, read-out: inhibited proliferation, 0.1 μg/ml, in the presence of 1 μg/ml MCC, 72 h, MTT) was ~85%, the inhibition at 1 µg/mL ([1]; Mus musculus, B16, 72 h, read-out: inhibited proliferation, 1 μg/ml, agent alone, 72 h, MTT) was ~90% and the inhibition at 1 µg/mL ([1]; Mus musculus, B16, 72 h, read-out: inhibited proliferation, 1 μg/ml, in the presence of 1 μg/ml MCC, 72 h, MTT) was ~90%. It also gave an inhibition at 10 µg/mL ([1]; Mus musculus, B16, 72 h, read-out: inhibited proliferation, 10 μg/ml, agent alone, 72 h, MTT) of 100%, an inhibition at 10 µg/mL ([1]; Mus musculus, B16, 72 h, read-out: inhibited proliferation, 10 μg/ml, in the presence of 1 μg/ml MCC, 72 h, MTT) of 100% and an inhibition at 100 µg/mL ([1]; Mus musculus, B16, 72 h, read-out: inhibited proliferation, 100 μg/ml, agent alone, 72 h, MTT) of 100%. It also gave an IC50 ([1]; Mus musculus, read-out: IC50 (concentration for 50% inhibition of B-16 melanoma cell proliferation), Drug + MCC at 1 μg/ml) of 0.005 µg/mL and an IC50 ([1]; Mus musculus, read-out: IC50 (concentration for 50% inhibition of B-16 melanoma cell proliferation), Drug Alone) of 0.12 µg/mL (≈ 0.923 µM).

In the case of `CN(Cc1cnc2nc(N)nc(N)c2n1)c1ccc(C(=O)N[C@@H](CCC(=O)O)C(=O)O)cc1` [MTX, methotrexate], the “PERCENTAGE OF CELLS IN EACH PHASE: G0G1 + SE” value [2] is reported as 44.6% and 43.0%, the “PERCENTAGE OF CELLS IN EACH PHASE: SL + G2M” value [2] is reported as 30.1% and 31.4% and the “PERCENTAGE OF CELLS IN EACH PHASE: SM” value [2] is reported as 25.3% and 25.6%. The “PERCENTAGE OF CELLS IN EACH PHASE: G0G1 + SE” value [3] was 18.3%, the “PERCENTAGE OF CELLS IN EACH PHASE: SL + G2M” value [3] was 63.3% and the “PERCENTAGE OF CELLS IN EACH PHASE: SM” value [3] was 18.4%. For the same compound, the “PERCENTAGE OF CELLS IN EACH PHASE: G0G1 + SE” value [4] was 46.1%, the “PERCENTAGE OF CELLS IN EACH PHASE: SL + G2M” value [4] was 18.4% and the “PERCENTAGE OF CELLS IN EACH PHASE: SM” value [4] was 35.5%. For the same compound, the “PERCENTAGE OF CELLS IN EACH PHASE: G0G1 + SE” value [5] was 50.3%, the “PERCENTAGE OF CELLS IN EACH PHASE: SL + G2M” value [5] was 25.5% and the “PERCENTAGE OF CELLS IN EACH PHASE: SM” value [5] was 24.2%. The “PERCENTAGE OF CELLS IN EACH PHASE: G0G1 + SE” value [6] was 48.3%, the “PERCENTAGE OF CELLS IN EACH PHASE: SL + G2M” value [6] was 46.3% and the “PERCENTAGE OF CELLS IN EACH PHASE: SM” value [6] was 5.4%.

In the case of `N.N.[Cl][Pt][Cl]` [cisplatin], the inhibited proliferation ([1]; 0.01 μg/ml, agent alone) is reported as 0%, the inhibited proliferation ([1]; 0.01 μg/ml, in the presence of 1 μg/ml MCC) is reported as “about 40%” and the inhibited proliferation ([1]; 0.1 μg/ml, agent alone) is reported as “about 8%”. For the same compound, the inhibited proliferation [1, 8] was “about 50%”, the inhibited proliferation ([1]; 1 μg/ml, agent alone) was “about 62%” and the inhibited proliferation [1, 9] was “about 70%”. For the same compound, the inhibited proliferation ([1]; 10 μg/ml, agent alone) was “about 90%”, the inhibited proliferation ([1]; 10 μg/ml, in the presence of 1 μg/ml MCC) was “about 90%” and the inhibited proliferation ([1]; 100 μg/ml, agent alone) was 100%. The “IC50 (concentration for 50% inhibition of B-16 melanoma cell proliferation), Drug + MCC at 1 μg/ml” value [1] was 0.16 µg/mL and the “IC50 (concentration for 50% inhibition of B-16 melanoma cell proliferation), Drug Alone” value [1] was 0.6 µg/mL.

For `CO[C@@]12[C@H](COC(N)=O)C3=C(C(=O)C(C)=C(N)C3=O)N1C[C@@H]1N[C@@H]12` [mitomycin-C], the inhibited proliferation ([1]; 0.1 μg/ml, agent alone) was “about 5%”, the inhibited proliferation [1, 8] was “about 40%” and the inhibited proliferation ([1]; 1 μg/ml, agent alone) was “about 10%”. For the same compound, the inhibited proliferation [1, 9] was “about 65%”, the inhibited proliferation ([1]; 10 μg/ml, agent alone) was 100% and the inhibited proliferation ([1]; 100 μg/ml, agent alone) was 100%. For the same compound, the inhibited proliferation ([1]; 100 μg/ml, in the presence of 1 μg/ml MCC) was 100%, the “IC50 (concentration for 50% inhibition of B-16 melanoma cell proliferation), Drug + MCC at 1 μg/ml” value [1] was 0.12 µg/mL and the “IC50 (concentration for 50% inhibition of B-16 melanoma cell proliferation), Drug Alone” value [1] was 2.2 µg/mL. The tumor mass [7] was “less tumor mass than Group 1 mice”.
